{
  "source": "paper PMC7028811",
  "about": "“Biopharmaceutical Understanding of Excipient Variability on Drug Apparent Solubility Based on Drug Physicochemical Properties: Case Study—Hypromellose (HPMC)” (The AAPS Journal, 2020)",
  "key": {"[1]": {"details": "cited from earlier work; for Lipophilicity (log P): experimental values; for Solubility (BCS classification): based on the compound's BCS classification"}, "[2]": {"assay": "Shake-flask drug solubility in absence of excipient (reference solubility)", "assay_type": "physicochemical", "details": "for solubility at 0.5 h: 37 °C, read-out: Solubility of pure drug", "procedure": "(§1) Compendial media (0.1 N HCl pH 1, phosphate buffer pH 6.8) were prepared according to the method described in the European Pharmacopoeia ([43]). Fasted State Simulated Gastric Fluid (FaSSGF) and Fasted State Simulated Intestinal Fluid (FaSSIF-V2) were prepared as described by Jantratid et al. ([44]).\n(§2) Drug solubility studies in the absence and presence of excipient were performed in triplicate using the shake-flask method ([45]). Drug excess amount and 2% w/w or 5% w/w of each excipient were weighed and placed in centrifuge tubes. […] The physical mixtures were vortexed for 3 min. Five millilitres of each medium was added in the tubes and the samples were placed in a shaking water bath (37 °C, 200 strokes per minute (spm)). […] Filter adsorption studies were prior performed in triplicate for each drug. […] Filtered samples were further diluted (if needed) with the corresponding medium and analysed by HPLC (Supplementary Table I). Analytical procedures for drug quantification in the samples were modifications of already published methods. Drug quantification was made based on calibration curves. Standards were formulated from concentrated stock solutions consisting of drug dissolved in MeOH. As drug solubility can be influenced by the changes in the pH of solutions by presence of dissolved drug ([38]), the pH of samples after the completion of each experiment was measured. Drug solubility was calculated based on the sample drug concentration measured."}, "[3]": {"assay": "Relative effect (RE) of HPMC brands on drug apparent solubility, shake-flask with drug/excipient physical mixtures", "assay_type": "physicochemical", "details": "FaSSIF-V2", "procedure": "as §1\nas §2, with “Standards were formulated from concentrated stock solutions consisting of drug dissolved in MeOH.” left out"}, "[4]": {"assay": "Theoretical % of drug ionized (Henderson-Hasselbalch equation at the pH of each medium)", "assay_type": "physicochemical"}},
  "note": "Like-named read-outs stand apart in the source and are kept apart here. Marks after values point to notes of the source that are not given here.",
  "data": [
    {"compound": "CC(C)Cc1ccc(C(C)C(=O)O)cc1", "note": "(centres unmarked) [IBU, Ibuprofen]", "values": [
      {"measurement": "Lipophilicity (log P)", "setting": "[1]", "result": "4.00 ([33])"}
    ]},
    {"compound": "CCC(C)n1ncn(-c2ccc(N3CCN(c4ccc(OCC5COC(Cn6cncn6)(c6ccc(Cl)cc6Cl)O5)cc4)CC3)cc2)c1=O", "note": "(centres unmarked) [ITZ, itraconazole]", "values": [
      {"measurement": "solubility at 24 h", "setting": "[2]; aqueous buffer, thermodynamic from solid, Phosphate buffer pH 6.8, 37 °C, mean ± SD, n = 3", "result": "< 0.015", "unit": "µg/mL"},
      {"measurement": "Solubility (BCS classification)", "setting": "[1]", "result": "Low ([40])"},
      {"measurement": "pKa", "setting": "[1]", "result": "Weak base (pKa=4.5) ([39])"},
      {"measurement": "Lipophilicity (log P)", "setting": "[1]", "result": "6.20 ([39])"}
    ]},
    {"compound": "CC(=O)Nc1ccc(O)cc1", "note": "[PRC, paracetamol]", "values": [
      {"measurement": "pKa", "setting": "[1]", "result": "Neutral (pKa=9.38) ([28])"},
      {"measurement": "Lipophilicity (log P)", "setting": "[1]", "result": "0.20 ([28])"}
    ]},
    {"compound": "NC(=O)N1c2ccccc2C=Cc2ccccc21", "note": "[CBZ, carbamazepine]", "values": [
      {"measurement": "solubility at 0.5 h", "setting": "[2]; pH 1.6, fassgf or other biorelevant, thermodynamic from solid, FaSSGF, 0.5 h", "result": 387, "unit": "µg/mL"},
      {"measurement": "solubility at 0.5 h", "setting": "[2]; pH 6.5, thermodynamic from solid, FaSSIF-V2, 0.5 h", "result": 307, "unit": "µg/mL"},
      {"measurement": "Relative effect (RE) on drug apparent solubility", "setting": "[3]; all the studied HPMC brands, 24 h", "result": "approximately 60%"},
      {"measurement": "Solubility (BCS classification)", "setting": "[1]", "result": "Low ([30])"},
      {"measurement": "Lipophilicity (log P)", "setting": "[1]", "result": "2.45 ([29])"},
      {"measurement": "pKa", "setting": "[1]; ref DrugBank", "result": "Neutral (pKa=15)^a"}
    ]},
    {"compound": "OCCN(CCO)c1nc(N2CCCCC2)c2nc(N(CCO)CCO)nc(N3CCCCC3)c2n1", "note": "[DPL, dipyridamole]", "values": [
      {"measurement": "Effect of HPMC presence on drug apparent solubility", "setting": "[3]", "result": "did not affect"},
      {"measurement": "% of drug ionized", "setting": "[4]; FaSSIF-V2", "result": 34, "unit": "%"},
      {"measurement": "% of drug ionized", "setting": "[4]; phosphate buffer pH 6.8", "result": 20.1, "unit": "%"},
      {"measurement": "Solubility (BCS classification)", "setting": "[1]", "result": "Low ([38])"}
    ]}
  ]
}
